pIC50: −log10 of the molar value.
System: 565232-114-T-J1-PDC complex spheroid viability
Experiment: Anticancer human tumor 565232-114-T-J1-PDC patient-derived bladder carcinoma cell line growth inhibition [CLK]
Settings: for pIC50: curve of first compound; for viability, T/C: stronger effect = lower value
Source text: A high-throughput screen of multi-cell type tumor spheroids was designed to identify active combinations of […] and targeted small molecules. Complex spheroids include a stromal component modeled by human endothelial cells (HUVEC) and fibroblasts modeled by human mesenchymal stem cells (MSCs). The concentration ranges selected for each drug and investigational agent were based upon clinically achievable concentrations if the clinical Cmax of the agent was known.
Compounds. The drugs and investigational agents: cirtuvivint (SM08502; NSC835563), CC-671 (NSC850746), vemurafenib (NSC761431), tapotoclax (NSC804041), sotorasib (NSC818433), adagrasib (NSC831453), MRTX-1133 (NSC836407), BAY2416964 (NSC825713), copanlisib (NSC816437), inavolisib (NSC800729), abemaciclib (NSC768073), osimertinib (NSC779217), entinostat (NSC756642), eltanexor (KPT-8602, NSC794443), venetoclax (NSC766270), ceralasertib (NSC777638), bortezomib (NSC756655), olaparib (NSC753686), talazoparib (NSC767125), alisertib (NSC759677), peposertib (NSC802822), gemcitabine (NSC613327), 5-fluorouracil (NSC19893), SN-38 (NSC673596), oxaliplatin (NSC266046), paclitaxel (NSC125973), and doxorubicin (NSC123127), were obtained from the National Cancer Institute (NCI) Developmental Therapeutics Program Chemical Repository. The FDA-approved anticancer drug set is available from the Developmental Therapeutics Program at https://dtp.cancer.gov/organization/dscb/obtaining/available plates.htm. […] The stock solutions were prepared in dimethyl sulfoxide (DMSO, Sigma-Aldrich, St. Louis, MO, cat. D2650), except for the platinum complexes which were prepared in saline (Quality Biological, Gaithersburg, MD, cat. 114-055-101), at 800-fold the tested concentration and stored at -70 degrees C prior to their use. All drugs and investigational agents were tested over a range starting from a high concentration at or near the clinical Cmax and decreasing in half-log increments. If the clinical Cmax for an agent had not been determined, the highest concentration tested was 10 microM.
Cell Culture. All cells were maintained in an incubator at 37 degrees C and 5% CO2 with 95% humidity. The PDC lines were cultured according to standard operating procedures established by the NCI PDMR. Briefly, all PDCs were thawed and cultured in Matrigel-coated flasks prepared with a working solution of 1X Ham's F-12 nutrient mix, without supplementation (Invitrogen, Waltham, MA, cat. 11765054), 100 U/mL penicillin-streptomycin (Invitrogen, cat. 15140122), and 2.5% Matrigel (Corning Inc., Corning, NY, cat. 354248) for the first three passages. The 947758-054-R-J2-PDC line was cultured in 6B/Colon 1A media, which includes advanced DMEM/F-12 (Thermo Fisher Scientific, cat. 12634028), 10 mM HEPES (Thermo Fisher Scientific, cat. 15630080), 1X GlutaMAX supplement (Thermo Fisher Scientific, cat. 35050061), 0.1 mg/mL primocin (InvivoGen, cat. ant-pm-2), 10% defined fetal bovine serum, heat inactivated (HyClone Laboratories Inc., cat. SH30070.03HI), 1.25 mM N-Acetyl-L-cysteine (Sigma-Aldrich, cat. A9165), 10 mM nicotinamide (Sigma-Aldrich, cat. N0636), 1X B-27 supplement (Thermo Fisher Scientific, cat. 17504044), 1X N-2 supplement (Thermo Fisher Scientific, cat. 17502048), and 10 microM Y-27632 dihydrochloride (Tocris Bioscience, cat. 1254). The 876862-298-R-J1-PDC was cultured in 6E media, which includes all 6B/Colon 1A media components plus 50% L-WRN conditioned media (ATCC, cat. CRL-3276), 50 ng/mL recombinant human EGF recombinant protein (hEGF; Thermo Fisher Scientific, cat. PHG0311), 10 ng/mL recombinant human fibroblast growth factor 10 (hGFG-10; PeproTech, cat. 100-26), 1 ng/mL recombinant human fibroblast growth factor 2 (hFGF-2; PeproTech, cat. 100-18B), and 1 µM prostaglandin E2 (PGE2; Tocris, cat. 2296). The 227483-062-R1-J1-PDC line was cultured in Panc media, containing all 6E components except hFGF-2, with the addition of 500 nM SB-431542 (Selleckchem, cat. S1067) and 10 nM gastrin (Tocris, cat. 3006). […]

[1] = second compound 0.0316 µM, first compound 0.0316 µM
[2] = second compound 0.0316 µM, first compound 0.1 µM
[3] = second compound 0.0316 µM, first compound 0.316 µM
[4] = second compound 0.0316 µM, first compound 1 µM
[5] = second compound 0.1 µM, first compound 0.0316 µM
[6] = second compound 0.1 µM, first compound 0.1 µM
[7] = second compound 0.1 µM, first compound 0.316 µM
[8] = second compound 0.1 µM, first compound 1 µM
[9] = second compound 0.316 µM, first compound 0.0316 µM
[10] = second compound 0.316 µM, first compound 0.1 µM
[11] = second compound 0.316 µM, first compound 0.316 µM
[12] = second compound 0.316 µM, first compound 1 µM
[13] = second compound 1 µM, first compound 0.0316 µM
[14] = second compound 1 µM, first compound 0.1 µM
[15] = second compound 1 µM, first compound 0.316 µM
[16] = second compound 1 µM, first compound 1 µM
[17] = second compound 3.16 µM, first compound 0.0316 µM
[18] = second compound 3.16 µM, first compound 0.1 µM
[19] = second compound 3.16 µM, first compound 0.316 µM
[20] = second compound 3.16 µM, first compound 1 µM
[21] = second compound 10 µM, first compound 0.0316 µM
[22] = second compound 10 µM, first compound 0.1 µM
[23] = second compound 10 µM, first compound 0.316 µM
[24] = second compound 10 µM, first compound 1 µM
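Also: spheroids exposed to compounds for 7 days before readout.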
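For viability, T/C in this document: 100% = DMSO vehicle wells with luminescence normalized to vehicle control.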

COc1c(OCCCN2CCOCC2)ccc2c3n(c(=NC(=O)c4cnc(N)nc4)nc12)CCN3 + CNC(=O)c1ccc(Nc2nc(OC3CCCC3)c3c(-c4ccc5nc(C)oc5c4)c[nH]c3n2)c(OC)c1
pIC50 (second compound 0.0316 µM): < 6.00
pIC50 (second compound 0.1 µM): > 8.50
pIC50 (second compound 0.316 µM): > 8.50
pIC50 (second compound 1 µM): > 8.50
pIC50 (second compound 3.16 µM): > 8.50
pIC50 (second compound 10 µM): > 8.50
viability, T/C (second compound 0.0316 µM, first compound 0.00316 µM): 106%
viability, T/C (second compound 0.0316 µM, first compound 0.01 µM): 81.5%
viability, T/C [1]: 84.9%
viability, T/C [2]: 94.5%
viability, T/C [3]: 118%
viability, T/C [4]: 68.7%
viability, T/C (second compound 0.1 µM, first compound 0.00316 µM): 39.5%
viability, T/C (second compound 0.1 µM, first compound 0.01 µM): 38.5%
viability, T/C [5]: 29.8%
viability, T/C [6]: 31.7%
viability, T/C [7]: 22.6%
viability, T/C [8]: 20.8%
viability, T/C (second compound 0.316 µM, first compound 0.00316 µM): 26.9%
viability, T/C (second compound 0.316 µM, first compound 0.01 µM): 24.1%
viability, T/C [9]: 22.4%
viability, T/C [10]: 18.9%
viability, T/C [11]: 15.8%
viability, T/C [12]: 9.27%
viability, T/C (second compound 1 µM, first compound 0.00316 µM): 15.4%
viability, T/C (second compound 1 µM, first compound 0.01 µM): 16.9%
viability, T/C [13]: 14.5%
viability, T/C [14]: 8.97%
viability, T/C [15]: 5.69%
viability, T/C [16]: 3.61%
viability, T/C (second compound 3.16 µM, first compound 0.00316 µM): 15.6%
viability, T/C (second compound 3.16 µM, first compound 0.01 µM): 9.18%
viability, T/C [17]: 8.92%
viability, T/C [18]: 4.99%
viability, T/C [19]: 5.15%
viability, T/C [20]: 1.71%
viability, T/C (second compound 10 µM, first compound 0.00316 µM): 12.3%
viability, T/C (second compound 10 µM, first compound 0.01 µM): 10.3%
viability, T/C [21]: 5.74%
viability, T/C [22]: 5.45%
viability, T/C [23]: 3.3%
viability, T/C [24]: 1.73%

O=c1[nH]cc(F)c(=O)[nH]1 + CN1CCN(c2cc(C(=O)Nc3cc4cc(-c5cnn(C)c5)ccc4cn3)ccn2)CC1
pIC50 (second compound 0.0316 µM): < 5.00
pIC50 (second compound 0.1 µM): < 5.00
pIC50 (second compound 0.316 µM): > 7.50
pIC50 (second compound 1 µM): > 7.50
pIC50 (second compound 3.16 µM): > 7.50
pIC50 (second compound 10 µM): > 7.50
viability, T/C [1]: 95.6%
viability, T/C [2]: 77.4%
viability, T/C [3]: 105%
viability, T/C [4]: 106%
viability, T/C (second compound 0.0316 µM, first compound 3.16 µM): 123%
viability, T/C (second compound 0.0316 µM, first compound 10 µM): 113%
viability, T/C [5]: 90.5%
viability, T/C [6]: 83.1%
viability, T/C [7]: 101%
viability, T/C [8]: 130%
viability, T/C (second compound 0.1 µM, first compound 3.16 µM): 171%
viability, T/C (second compound 0.1 µM, first compound 10 µM): 120%
viability, T/C [9]: 16.8%
viability, T/C [10]: 18.7%
viability, T/C [11]: 22.1%
viability, T/C [12]: 22.7%
viability, T/C (second compound 0.316 µM, first compound 3.16 µM): 19.2%
viability, T/C (second compound 0.316 µM, first compound 10 µM): 17.1%
viability, T/C [13]: 0.2%
viability, T/C [14]: 0.42%
viability, T/C [15]: 0.17%
viability, T/C [16]: 0.16%
viability, T/C (second compound 1 µM, first compound 3.16 µM): 1.57%
viability, T/C (second compound 1 µM, first compound 10 µM): 0.22%
viability, T/C [17]: 0.2%
viability, T/C [18]: 0.14%
viability, T/C [19]: 1.23%
viability, T/C [20]: 0.14%
viability, T/C (second compound 3.16 µM, first compound 3.16 µM): 1.73%
viability, T/C (second compound 3.16 µM, first compound 10 µM): 1.38%
viability, T/C [21]: 0.13%
viability, T/C [22]: 0.29%
viability, T/C [23]: 0.25%
viability, T/C [24]: 0.15%
viability, T/C (second compound 10 µM, first compound 3.16 µM): 0.19%
viability, T/C (second compound 10 µM, first compound 10 µM): 1.01%
